Results: patent US20230250433A1, “METHODS AND COMPOSITIONS FOR TREATMENT OF APC-DEFICIENT CANCER” (Board of Regents, The University of Texas System, priority 2020, published 2023)

Key:
Axl = target: T1, Axl (Mus musculus, UniProt Q00993); assay: Immunoblots for Axl and phospho-Axl; assay type: cell-based; settings: APC-WT and APC-KO MC38 cells; R428 0.2 μM 24 h; rmGAS6 24 h
T1 construct: immunoblots for Axl and phospho-Axl in APC-WT and APC-KO MC38 cells after R428 treatment (0.2 μM, 24 h); endogenous in cells; host or cells: MC38 mouse colorectal cancer cells, APC-WT and isogenic APC-KO
T1 sequence (Q00993 19-888): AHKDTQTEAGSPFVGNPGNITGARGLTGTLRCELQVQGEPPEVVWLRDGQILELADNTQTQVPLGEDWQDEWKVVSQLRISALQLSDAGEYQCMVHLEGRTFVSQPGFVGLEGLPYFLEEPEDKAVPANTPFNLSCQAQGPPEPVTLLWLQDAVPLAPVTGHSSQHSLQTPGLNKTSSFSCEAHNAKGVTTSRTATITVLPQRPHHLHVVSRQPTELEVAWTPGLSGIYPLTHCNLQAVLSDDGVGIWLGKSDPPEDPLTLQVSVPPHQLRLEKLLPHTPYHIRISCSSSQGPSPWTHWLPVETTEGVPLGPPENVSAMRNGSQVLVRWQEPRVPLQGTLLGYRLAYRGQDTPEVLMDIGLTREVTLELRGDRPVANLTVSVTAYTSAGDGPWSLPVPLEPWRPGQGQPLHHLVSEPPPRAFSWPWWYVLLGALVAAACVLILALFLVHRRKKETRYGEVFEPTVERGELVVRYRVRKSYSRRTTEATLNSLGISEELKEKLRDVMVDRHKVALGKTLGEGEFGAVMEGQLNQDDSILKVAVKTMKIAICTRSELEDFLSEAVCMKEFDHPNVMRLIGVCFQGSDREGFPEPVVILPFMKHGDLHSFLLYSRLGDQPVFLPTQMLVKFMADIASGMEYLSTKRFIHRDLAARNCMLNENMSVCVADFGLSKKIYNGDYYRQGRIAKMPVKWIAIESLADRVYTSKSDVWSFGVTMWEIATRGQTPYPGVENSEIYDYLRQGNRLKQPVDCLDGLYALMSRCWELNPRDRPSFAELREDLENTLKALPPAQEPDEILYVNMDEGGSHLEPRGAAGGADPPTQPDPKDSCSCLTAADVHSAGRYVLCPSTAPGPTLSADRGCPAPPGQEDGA
Text: (§1) The red box indicates Axl. […] Six replicates per group. two-tailed t-test. *P<0.05. […] Epithelial cells are stained with EpCam and indicated by GFP. X63 magnification. […] Total flux measurement of at the end point. **P<0.01. two-tailed t-test. […] Total flux measurement of tumors was done at the end point. **P<0.01. two-tailed t-test.
(§2) Gas6 is a ligand of Axl and is secreted mainly by tumor-associated macrophages in the TME (Loges et al., 2010), raising the possibility that macrophage-derived Gas6 might activate Axl to support the growth of APC-deficient cancer cells.
Cell lysates were prepared with RIPA lysis buffer (Roche) with protease inhibitor […] Immunoblotting was performed following standard protocol. Antibodies were purchased from the indicated companies.

[1] = tested on: LS180 and HT-29 cell lines; assay: Colony formation assay with Gas6 and R428; assay type: cell-based, human; settings: Gas6 25 ng with R428 1 μM, 36 hr
Text: as §1, §2
Colorectal cancer cell proliferation in vitro was assayed through colony formation. 1×10^3 cells were seeded in each well of 6-well plates and cultured for 5-7 days. At the end point, cells were fixed and stained with 0.5% crystal violet in 25% methanol for 1 hr. These studies were performed in triplicate.

[2] = tested on: APC-WT and APC-KO MC38 cells; assay: Cell viability assay with R428; assay type: cell-based, mouse; settings: R428 0.5 μM, 48 h
Text: as §1, §2

Raw264.7 = assay: Transwell migration assay of macrophages in conditioned media; assay type: cell-based, mouse; settings: recombinant CXCL5 protein 50 ng, 36 hr
Procedure: Two-way ANOVA analysis. […] Dox food was applied at day 5 post-orthotopic injection to induce TDO2 knockdown in vivo. n=4 per group. n.s.P>0.05, *P<0.05, […], ****P<0.0001. two-tailed t-test. […] FIGS. 12D and 12E show quantification of macrophages (F4/80+; FIG. 12D) and M2 macrophages (CD206+; FIG. 12E) in tumors shown in FIG. 12C. CyTOF data analyzed by FlowJo. Data represent mean±s.d., n=3 per group. *P<0.05, **P<0.01. two-tailed t-test. […] Recombinant CXCL5 protein (50 ng) and SX-682 (1 μM) were added to harvested condition media for 36 hr. Scale bar, 100 μm. n=3 biological replicates. Quantification is shown in lower panel. n.s. P>0.05, ***P<0.001, ****P<0.0001. two-tailed t-test. […] Clondronate liposomes or control encapsome liposomes were given intraperitoneally (100 μl) at day 2 post-orthotopic injection and three times a week. […]
Macrophages (1×10^4 for Raw264.7 and BMDM) were suspended in serum-free culture medium and seeded into 24-well Transwell inserts ([…]). […] After 24 h, the migrated macrophages were fixed and stained with crystal violet (0.05%, sigma), and then counted as cells per field of view under microscope or measured as OD590 nm (expressed as migration index) after crystal violet was dissolved.

Raw264.7 cells = assay: RT-qPCR of M2 macrophage signature genes in Raw264.7 cells with conditioned media; assay type: cell-based, mouse; settings: conditioned media from APC-KO MC38 cells, 30 h
Procedure: (§3) Scale bars, 50μm. […] Scale bars, 100 μm. […] (isTDO2 and isTDO2/shCXCL5 #2 groups, n=7, isTDO2/shCXCL5 #3, n=8). ****P<0.0001. two-tailed t-test. […] (shControl and shCXCL5 #2 groups, n=7, shCXCL5 #3, n=8). ****P<0.0001. two-tailed t-test.
(§4) RNA was isolated from cells using Trizol (Invitrogen) following the manufacturer's instructions. RNA (200-500 ng) was first treated with RNase-free DNase I using the DNA-free kit (Ambion) to remove all genomic DNA, and then reverse-transcribed into cDNA using an ABI High Capacity cDNA RT Kit (Invitrogen). The cDNA was analyzed using real-time quantitative PCR (SYBR Green, Invitrogen) with an Applied Biosystems 7900 Sequence Detection System. Each reaction was performed in triplicate. The expression of each gene was normalized by that of mouse Actin or human GAPDH.

BMDM [3] = assay: RT-qPCR of M2 macrophage signature genes in BMDM; assay type: cell-based, mouse; settings: CXCL5 50 ng, Kyn 1 mM, 24 hr
Procedure: as §3, §4

BMDM [4] = assay: RT-qPCR analysis of Gas6 expression in BMDM; assay type: cell-based, mouse; settings: Kyn 1 mM, CXCL5 50 ng, Gas6 25 ng, 24 hr
Procedure: as §1
(§5) To evaluate whether secreted factors from cancer cells might upregulate Gas6 expression in macrophages, BMDMs were incubated with conditioned media from MC38 cell lines. […] (FIG. 15H). Finally, to validate the roles of Gas6 in promoting tumor growth in vivo, CT26 cell lines and two independent Raw 264.7 shGas6 cell lines were co-injected into syngeneic Balb/CJ mice (FIG. 15I).
as §4

CT26 = assay: Orthotopic co-injection of CT26 cells and Raw264.7 macrophages, tumor growth; assay type: in vivo, mouse; settings: Raw264.7 pre-treated with 100 ng of CXCL5 for 48 h before injection; BalB/CJ mice
Procedure: as §1, §5
Mice were grouped by 5 animals in large plastic cages and were maintained under pathogen-free conditions. All animal studies were performed with the approval of MD Anderson Cancer Center's Institutional Animal Care and Use Committee (IACUC). NSG (NOD.Cg-Prkdc^scid Il2rg^tm1Wjl/SzJ), C57BL/J6J, and BALB/cJ mice were purchased from Jackson laboratory (Stock No: 005557, 000664, 000651). Colorectal orthotopic xenograft tumor models were established by following protocol (Tseng et al., 2007, JoVE).

**Q.** Which results are given for `Nc1nc(Nc2ccc3c(c2)CCC(N2CCCC2)CC3)nn1-c1cc2c(nn1)-c1ccccc1CCC2` (centres unmarked) [R428]?
**A.** Axl phosphorylation (Axl): reduce Axl phosphorylation; effect on Gas6-promoted cancer cell growth [1]: reversed by R428 treatment; sensitivity of APC-deficient vs APC-intact MC38 cells [2]: increased sensitivity

**Q.** For “CXCL5: recombinant CXCL5 protein, cytokine”, which “macrophage recruitment with CM from APC-KO TDO2 depleted MC38 cells” value (Raw264.7) is on record?
**A.** rescue of macrophage recruitment

**Q.** What about the “M2 macrophage markers decreased by TDO2 knockdown” value (Raw264.7 cells) of the same compound?
**A.** rescued by CXCL5 supplementation

**Q.** And the M2 macrophage markers (BMDM [3])?
**A.** M2 macrophage markers increased

**Q.** What about the Gas6 expression (BMDM [4]) of the same compound?
**A.** increased Gas6 expression

**Q.** And the “growth of CT26 tumors co-injected with pre-treated macrophages” value (CT26)?
**A.** promoted the growth of CT26 significantly
